Experimental data as given in patent US10100022B2, “Sphingosine kinase inhibitors” (University of Virginia Patent Foundation, priority 2014, dated 2018).
Structures can show the parent of a compound that is named as a salt.

Experiments:
[1] = target: T1, human sphingosine kinase type 1 (hSPHK1) (Homo sapiens, UniProt Q9NYA1); assay: Sphingosine kinase assay, recombinant human SPHK1 ([32P]S1P product, scintillation counting); format: biochemical; conditions: read-out: activity hSPHK1 (range estimate of KI)
T1 construct: made in house; host or cells: Sf9 insect cells (baculovirus)
T1 sequence (Q9NYA1 whole entry): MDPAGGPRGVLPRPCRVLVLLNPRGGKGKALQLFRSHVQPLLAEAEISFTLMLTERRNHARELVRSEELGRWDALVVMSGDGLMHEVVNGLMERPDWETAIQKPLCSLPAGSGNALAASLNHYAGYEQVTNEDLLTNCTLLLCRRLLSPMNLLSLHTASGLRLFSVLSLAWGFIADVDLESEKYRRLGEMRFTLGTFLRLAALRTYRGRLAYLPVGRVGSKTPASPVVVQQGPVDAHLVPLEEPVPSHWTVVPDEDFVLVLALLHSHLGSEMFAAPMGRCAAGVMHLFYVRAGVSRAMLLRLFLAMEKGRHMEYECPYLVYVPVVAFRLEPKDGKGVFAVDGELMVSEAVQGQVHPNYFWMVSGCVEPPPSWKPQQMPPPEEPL
Description: (§1) Recombinant baculovirus encoding human sphingosine kinase type 1 (SPHK1) was used to infect Sf9 insect cells and after 2-5 days, cleared lysates were prepared and used without further purification. Human SPHK2, which was partially purified from baculovirus-infected Sf9 cell lysates, was purchased from a commercial source. Sphingosine kinase assays were performed using standard protocols. Product [^32P]S1P was recovered by binding to cation exchange paper and quantified by scintillation counting.

[2] = target: T2, human sphingosine kinase type 2 (hSPHK2) (Homo sapiens, UniProt Q9NRA0); assay: Sphingosine kinase assay, recombinant human SPHK2 ([32P]S1P product, scintillation counting); format: biochemical; conditions: read-out: activity hSPHK2 (range estimate of KI)
T2 construct: purchased; host or cells: Sf9 insect cells (baculovirus)
T2 sequence (Q9NRA0 1-654): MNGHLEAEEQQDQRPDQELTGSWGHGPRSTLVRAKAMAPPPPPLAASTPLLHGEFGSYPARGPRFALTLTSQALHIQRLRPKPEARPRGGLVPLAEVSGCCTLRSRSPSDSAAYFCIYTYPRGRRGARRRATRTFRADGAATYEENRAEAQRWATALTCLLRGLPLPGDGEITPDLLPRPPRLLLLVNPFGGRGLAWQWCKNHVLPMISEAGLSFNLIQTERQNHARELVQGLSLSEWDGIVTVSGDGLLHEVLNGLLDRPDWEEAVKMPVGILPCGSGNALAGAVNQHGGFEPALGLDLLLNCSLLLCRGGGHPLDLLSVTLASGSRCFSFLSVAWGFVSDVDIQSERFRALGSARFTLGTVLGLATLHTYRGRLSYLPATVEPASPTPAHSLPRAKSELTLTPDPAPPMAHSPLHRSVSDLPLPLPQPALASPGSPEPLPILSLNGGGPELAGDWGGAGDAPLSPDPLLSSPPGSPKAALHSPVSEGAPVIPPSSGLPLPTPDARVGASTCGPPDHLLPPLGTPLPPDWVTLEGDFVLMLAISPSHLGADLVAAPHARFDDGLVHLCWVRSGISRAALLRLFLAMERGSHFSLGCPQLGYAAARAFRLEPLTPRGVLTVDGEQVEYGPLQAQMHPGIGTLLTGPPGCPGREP
Description: as §1

SMILES: C=CCOc1ccc(-c2noc([C@@H]3CCCN3C(=N)N)n2)cc1C(F)(F)F [Compound 77A, (S)-2-(3-(4-(allyloxy)-3-(trifluoromethyl)phenyl)-1,2,4-oxadiazol-5-yl)pyrrolidine-1-carboximidamide hydrochloride]
- Ki [1]: > 10 µM
- Ki [2]: > 10 µM

SMILES: N=C(N)N1CCC[C@H]1c1nc(-c2ccc3cc(OCc4cccc(C(F)(F)F)c4)ccc3c2)no1 [Compound 67A, (S)-amino(2-(3-(6-((3-(trifluoromethyl)benzyl)oxy)naphthalen-2-yl)-1,2,4-oxadiazol-5-yl)pyrrolidin-1-yl)methaniminium chloride]
- Ki [1]: > 10 µM
- Ki [2]: 1 to 10 µM

SMILES: CCCCCC=CCOc1ccc(-c2noc([C@@H]3CCCN3C(=N)N)n2)cc1C(F)(F)F [Compound 82A, (S)-amino(2-(3-(4-(oct-2-en-1-yloxy)-3-(trifluoromethyl)phenyl)-1,2,4-oxadiazol-5-yl)pyrrolidin-1-yl)methaniminium 2,2,2-trifluoroacetate]
- Ki [1]: > 10 µM
- Ki [2]: < 1 µM

SMILES: N=C(N)N1CC[C@H](O)[C@H]1c1nc(-c2ccc(OCCCc3ccc(Cl)c(Cl)c3)c(C(F)(F)F)c2)no1 [Compound 28A]
- Ki [1]: 1 to 10 µM
- Ki [2]: < 1 µM

SMILES: CCCCCCCOc1ccc2cc(-c3noc([C@@H]4CCCN4C(=N)N)n3)ccc2c1 [Compound 13A, (S)-amino(2-(3-(6-(heptyloxy)naphthalen-2-yl)-1,2,4-oxadiazol-5-yl)pyrrolidin-1-yl)methaniminium chloride]
- Ki [1]: > 10 µM
- Ki [2]: 1 to 10 µM

SMILES: CCCC=CCOc1ccc(-c2noc([C@@H]3CCCN3C(=N)N)n2)cc1C(F)(F)F [Compound 80A, (S)-amino(2-(3-(4-(hex-2-en-1-yloxy)-3-(trifluoromethyl)phenyl)-1,2,4-oxadiazol-5-yl)pyrrolidin-1-yl)methaniminium 2,2,2-trifluoroacetate]
- Ki [1]: > 10 µM
- Ki [2]: 1 to 10 µM

SMILES: N=C(N)N1CCC[C@H]1c1nc(-c2ccc(OCCCc3ccc(Cl)c(Cl)c3)c(C(F)(F)F)c2)no1 [Compound 30A, (S)-amino(2-(3-(4-(3-(3,4-dichlorophenyl)propoxy)-3-(trifluoromethyl)phenyl)-1,2,4-oxadiazol-5-yl)pyrrolidin-1-yl)methaniminium chloride]
- Ki [1]: > 10 µM
- Ki [2]: < 1 µM

SMILES: CCCCC=CCOc1ccc(-c2noc([C@@H]3CCCN3C(=N)N)n2)cc1C(F)(F)F [Compound 81A, (S)-amino(2-(3-(4-(hept-2-en-1-yloxy)-3-(trifluoromethyl)phenyl)-1,2,4-oxadiazol-5-yl)pyrrolidin-1-yl)methaniminium 2,2,2-trifluoroacetate]
- Ki [1]: > 10 µM
- Ki [2]: < 1 µM

SMILES: CCCCCCCCn1cc(-c2noc([C@@H]3CCCN3C(=N)N)n2)c2ccccc21 [Compound 74A, (S)-amino(2-(3-(1-octyl-1H-indol-3-yl)-1,2,4-oxadiazol-5-yl)pyrrolidin-1-yl)methaniminium chloride]
- Ki [1]: > 10 µM
- Ki [2]: 1 to 10 µM

SMILES: N=C(N)N1CCC[C@H]1c1nc(-c2ccc3cc(O)ccc3c2)no1 [Compound 51A, (S)-amino(2-(3-(6-hydroxynaphthalen-2-yl)-1,2,4-oxadiazol-5-yl)pyrrolidin-1-yl)methaniminium chloride]
- Ki [1]: > 10 µM
- Ki [2]: > 10 µM

SMILES: CCCCCCCn1ccc2c(-c3noc([C@@H]4CCCN4C(=N)N)n3)cccc21 [Compound 8B, (S)-amino(2-(3-(1-heptyl-1H-indol-4-yl)-1,2,4-oxadiazol-5-yl)pyrrolidin-1-yl)methaniminium chloride]
- Ki [1]: > 10 µM
- Ki [2]: < 1 µM

SMILES: N=C(N)N1CC[C@H](O)[C@H]1c1nc(-c2ccc(OCCCCc3ccc(C(F)(F)F)cc3)c(C(F)(F)F)c2)no1 [Compound 25A, amino((2S,3S)-3-hydroxy-2-(3-(3-(trifluoromethyl)-4-(4-(4-(trifluoromethyl)phenyl)butoxy)phenyl)-1,2,4-oxadiazol-5-yl)pyrrolidin-1-yl)methaniminium chloride]
- Ki [1]: < 1 µM
- Ki [2]: < 1 µM

SMILES: N=C(N)N1CCC[C@H]1c1nc(-c2ccc3cc(OCc4ccc(-c5ccccc5)cc4)ccc3c2)no1 [Compound 72A, (S)-(2-(3-(6-([1,1′-biphenyl]-4-ylmethoxy)naphthalen-2-yl)-1,2,4-oxadiazol-5-yl)pyrrolidin-1-yl)(amino)methaniminium chloride]
- Ki [1]: > 10 µM
- Ki [2]: 1 to 10 µM

SMILES: CC(C)(C)c1ccc(CCc2ccc(-c3noc([C@@H]4CCCN4C(=N)N)n3)cc2C(F)(F)F)cc1 [Compound 61A]
- Ki [1]: > 10 µM
- Ki [2]: < 1 µM

SMILES: N=C(N)N1CC[C@H](O)[C@H]1c1nc(-c2ccc(OCC3CCCCC3)c(C(F)(F)F)c2)no1 [Compound 96A, amino((2S,3S)-2-(3-(4-(cyclohexylmethoxy)-3-(trifluoromethyl)phenyl)-1,2,4-oxadiazol-5-yl)-3-hydroxypyrrolidin-1-yl)methaniminium chloride]
- Ki [1]: < 1 µM
- Ki [2]: < 1 µM

SMILES: CCCCCCCCOc1ccc(-c2noc([C@@H]3[C@@H](CO)CCN3C(=N)N)n2)cc1C(F)(F)F [Compound 20a, 2,2,2-trifluoroacetate]
- Ki [1]: < 1 µM
- Ki [2]: < 1 µM

SMILES: N=C(N)N1CCC[C@H]1c1nc(-c2ccc3cc(OCC4CCCC4)ccc3c2)no1 [Compound 66A, (S)-amino(2-(3-(6-(cyclopentylmethoxy)naphthalen-2-yl)-1,2,4-oxadiazol-5-yl)pyrrolidin-1-yl)methaniminium chloride]
- Ki [1]: > 10 µM
- Ki [2]: > 10 µM

SMILES: COCCCOc1ccc2cc(-c3noc([C@@H]4CCCN4C(=N)N)n3)ccc2c1 [Compound 57A, (S)-amino(2-(3-(6-(3-methoxypropoxy)naphthalen-2-yl)-1,2,4-oxadiazol-5-yl)pyrrolidin-1-yl)methaniminium chloride]
- Ki [1]: > 10 µM
- Ki [2]: > 10 µM

SMILES: N=C(N)N1CCC[C@H]1c1nc(-c2ccc3cc(OCCc4cccc(C(F)(F)F)c4)ccc3c2)no1 [Compound 60A, (S)-amino(2-(3-(6-(3-(trifluoromethyl)phenethoxy)naphthalen-2-yl)-1,2,4-oxadiazol-5-yl)pyrrolidin-1-yl)methaniminium chloride]
- Ki [1]: > 10 µM
- Ki [2]: > 10 µM

SMILES: CCCCCOc1ccc2cc(-c3noc([C@@H]4CCCN4C(=N)N)n3)ccc2c1 [Compound 12A, (S)-amino(2-(3-(6-(pentyloxy)naphthalen-2-yl)-1,2,4-oxadiazol-5-yl)pyrrolidin-1-yl)methaniminium chloride]
- Ki [1]: > 10 µM
- Ki [2]: > 10 µM

SMILES: N=C(N)N1CC[C@H](O)[C@H]1c1nc(-c2ccc(CCc3ccc(C(F)(F)F)cc3)c(C(F)(F)F)c2)no1 [Compound 40A, (2S,3S)-3-hydroxy-2-(3-(3-(trifluoromethyl)-4-(4-(trifluoromethyl)phenethyl)phenyl)-1,2,4-oxadiazol-5-yl)pyrrolidine-1-carboximidamide hydrochloride]
- Ki [1]: 1 to 10 µM
- Ki [2]: < 1 µM

SMILES: N=C(N)N1CCC[C@H]1c1nc(-c2ccc(OC/C=C/c3ccc(F)cc3)c(C(F)(F)F)c2)no1 [Compound 87A, (S,E)-2-(3-(4-((3-(4-fluorophenyl)allyl)oxy)-3-(trifluoromethyl)phenyl)-1,2,4-oxadiazol-5-yl)pyrrolidine-1-carboximidamide hydrochloride]
- Ki [1]: > 10 µM
- Ki [2]: < 1 µM

SMILES: N=C(N)N1CCC[C@H]1c1nc(-c2ccc(OCCCCc3ccc(C(F)(F)F)cc3)c(C(F)(F)F)c2)no1 [Compound 26A, (S)-amino(2-(3-(3-(trifluoromethyl)-4-(4-(4-(trifluoromethyl)phenyl)butoxy)phenyl)-1,2,4-oxadiazol-5-yl)pyrrolidin-1-yl)methaniminium chloride]
- Ki [1]: > 10 µM
- Ki [2]: < 1 µM

SMILES: CCCCCCCCOc1ccc(-c2noc([C@@H]3CC(F)(F)CN3C(=N)N)n2)cc1C(F)(F)F [Compound 19A, (S)-amino(4,4-difluoro-2-(3-(4-(octyloxy)-3-(trifluoromethyl)phenyl)-1,2,4-oxadiazol-5-yl)pyrrolidin-1-yl)methaniminium chloride]
- Ki [1]: > 10 µM
- Ki [2]: > 10 µM

SMILES: CCCCCCCCCc1ccc(-c2noc([C@@H]3CCCN3C(=N)N)n2)cc1C(F)(F)F [Compound 3B]
- Ki [1]: > 10 µM
- Ki [2]: < 1 µM

SMILES: CCCCCCOc1ccc2cc(-c3noc([C@@H]4CCCN4C(=N)N)n3)ccc2c1 [Compound 16A, (S)-amino(2-(3-(6-(hexyloxy)naphthalen-2-yl)-1,2,4-oxadiazol-5-yl)pyrrolidin-1-yl)methaniminium chloride]
- Ki [1]: > 10 µM
- Ki [2]: > 10 µM

SMILES: CCCCCCCCc1ccc(-c2noc([C@@H]3CCCN3C(=N)N)n2)cc1C(F)(F)F [Compound 5A, (S)-Amino(2-(3-(4-octyl-3-(trifluoromethyl)phenyl)-1,2,4-oxadiazol-5-yl)pyrrolidin-1-yl)methaniminium chloride]
- Ki [1]: > 10 µM
- Ki [2]: < 1 µM
